Measurements: patent publication US10787446B2 (GENENTECH, INC., priority 2015, dated 2020)
Where a name gives a salt, the structure may show the parent alone.

Target: T1, hNav1.7 and the β1 subunit (Homo sapiens, UniProt Q15858)
T1 construct: expressed in transfected cells
Assay: Tritiated compound competitive binding to membranes from cells heterologously expressing hNav1.7 and the β1 subunit (LBA)
Conditions: competition with 100 pM [3H]compound, 18 h, room temperature; IC50 by 4 parameter logistic model
Method in brief: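 Membranes were incubated 18 h at room temperature with 100 pM [3H]-labelled NaV1.7 inhibitor and increasing test compound in 100 mM NaCl, 20 mM Tris HCl, pH 7.4. Bound radioligand was filtered on PEI-soaked GF/C, washed, and counted by scintillation. IC50 from a 4-parameter logistic fit of % inhibition.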

T1 sequence (Q15858 whole entry): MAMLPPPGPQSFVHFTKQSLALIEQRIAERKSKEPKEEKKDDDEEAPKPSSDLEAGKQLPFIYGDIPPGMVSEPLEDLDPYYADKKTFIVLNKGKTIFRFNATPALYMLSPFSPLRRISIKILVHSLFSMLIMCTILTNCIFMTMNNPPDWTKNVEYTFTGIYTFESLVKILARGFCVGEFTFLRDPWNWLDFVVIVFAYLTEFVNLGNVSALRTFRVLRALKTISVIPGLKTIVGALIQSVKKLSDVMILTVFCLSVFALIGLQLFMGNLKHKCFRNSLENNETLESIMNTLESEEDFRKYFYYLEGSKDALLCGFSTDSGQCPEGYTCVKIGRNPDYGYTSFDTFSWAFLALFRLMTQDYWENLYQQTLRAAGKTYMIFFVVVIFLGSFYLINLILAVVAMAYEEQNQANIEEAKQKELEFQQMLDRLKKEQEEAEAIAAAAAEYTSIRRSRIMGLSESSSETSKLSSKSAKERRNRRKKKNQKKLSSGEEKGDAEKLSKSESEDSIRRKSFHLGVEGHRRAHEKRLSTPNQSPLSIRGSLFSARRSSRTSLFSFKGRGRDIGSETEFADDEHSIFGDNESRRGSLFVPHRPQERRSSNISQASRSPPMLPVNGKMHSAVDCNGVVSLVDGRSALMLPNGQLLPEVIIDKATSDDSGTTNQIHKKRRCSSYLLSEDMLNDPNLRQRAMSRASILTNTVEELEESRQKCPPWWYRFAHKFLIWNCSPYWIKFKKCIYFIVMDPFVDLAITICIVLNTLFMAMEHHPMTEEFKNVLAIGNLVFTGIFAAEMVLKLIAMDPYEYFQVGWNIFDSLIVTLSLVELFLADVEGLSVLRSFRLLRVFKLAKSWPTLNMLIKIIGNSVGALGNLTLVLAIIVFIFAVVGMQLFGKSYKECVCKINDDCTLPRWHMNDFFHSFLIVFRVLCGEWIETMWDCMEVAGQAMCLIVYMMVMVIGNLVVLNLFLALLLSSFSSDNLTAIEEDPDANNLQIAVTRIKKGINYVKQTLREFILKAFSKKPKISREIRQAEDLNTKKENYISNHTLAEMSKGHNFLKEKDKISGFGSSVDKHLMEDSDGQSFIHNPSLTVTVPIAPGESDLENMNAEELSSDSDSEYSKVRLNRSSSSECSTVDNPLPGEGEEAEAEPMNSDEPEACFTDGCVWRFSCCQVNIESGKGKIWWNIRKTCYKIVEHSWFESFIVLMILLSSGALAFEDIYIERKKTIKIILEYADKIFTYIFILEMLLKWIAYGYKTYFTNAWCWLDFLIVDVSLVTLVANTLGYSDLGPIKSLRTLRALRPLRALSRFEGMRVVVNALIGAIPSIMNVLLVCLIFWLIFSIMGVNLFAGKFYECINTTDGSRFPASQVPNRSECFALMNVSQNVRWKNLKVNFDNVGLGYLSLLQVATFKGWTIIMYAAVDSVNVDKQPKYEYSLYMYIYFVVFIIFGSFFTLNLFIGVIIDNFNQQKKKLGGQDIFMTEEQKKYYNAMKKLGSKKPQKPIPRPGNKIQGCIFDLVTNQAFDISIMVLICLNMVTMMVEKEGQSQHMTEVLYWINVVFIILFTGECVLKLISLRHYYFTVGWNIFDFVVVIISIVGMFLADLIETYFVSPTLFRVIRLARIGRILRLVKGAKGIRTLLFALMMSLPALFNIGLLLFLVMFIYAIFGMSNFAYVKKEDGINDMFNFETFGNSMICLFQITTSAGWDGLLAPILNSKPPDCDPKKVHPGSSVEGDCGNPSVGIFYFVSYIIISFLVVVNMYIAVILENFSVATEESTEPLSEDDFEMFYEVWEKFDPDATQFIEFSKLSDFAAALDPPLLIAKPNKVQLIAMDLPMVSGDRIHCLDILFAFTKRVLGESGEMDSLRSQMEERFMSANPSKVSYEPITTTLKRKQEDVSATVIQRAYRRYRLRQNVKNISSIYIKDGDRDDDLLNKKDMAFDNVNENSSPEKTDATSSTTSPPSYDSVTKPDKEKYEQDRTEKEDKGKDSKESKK
T1 sequence (Q07699 19-218 partner): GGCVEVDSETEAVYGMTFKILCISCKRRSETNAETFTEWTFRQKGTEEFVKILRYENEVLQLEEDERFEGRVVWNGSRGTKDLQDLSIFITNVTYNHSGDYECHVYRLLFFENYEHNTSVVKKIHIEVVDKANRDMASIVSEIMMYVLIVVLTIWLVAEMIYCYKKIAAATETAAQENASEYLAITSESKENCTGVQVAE

CC(C)(C)OC(=O)N1CCN([C@H]2CCOc3cc(S(=O)(=O)Nc4ncns4)ccc32)[C@H](c2ccc(F)cc2)C1 [Example 217, tert-butyl (R)-4-((S)-7-(N-(1,2,4-thiadiazol-5-yl)sulfamoyl)chroman-4-yl)-3-(4-fluorophenyl)piperazine-1-carboxylate]
Nav1.7 (LBA): 0.0183 µM

CS(=O)(=O)[C@@H]1CCN([C@@H]2CCOc3cc(S(=O)(=O)Nc4ncns4)ccc32)[C@H](c2ccc(F)cc2)C1 [Example 162, (R)-4-((2S,4R)-2-(4-fluorophenyl)-4-(methylsulfonyl)piperidin-1-yl)-N-(1,2,4-thiadiazol-5-yl)chroman-7-sulfonamide]
Nav1.7 (LBA): 3 µM

O=S(=O)(Nc1ncns1)c1cc(Cl)c(CN2CCCC[C@H]2c2cccnc2)cc1F [Example 70, (S)-5-chloro-2-fluoro-4-((2-(pyridin-3-yl)piperidin-1-yl)methyl)-N-(1,2,4-thiadiazol-5-yl)benzenesulfonamide]
Nav1.7 (LBA): 0.175 µM

CC(C)[C@H]1CCN([C@@H]2CCOc3cc(S(=O)(=O)Nc4ncns4)ccc32)[C@@H](c2ccccc2)C1 (single isomer, unassigned) [Example 130]
Nav1.7 (LBA): 0.109 µM

O=S(=O)(Nc1ncns1)c1ccc2c(c1)OCC[C@H]2N1CCCC[C@H]1c1cccnc1 (single isomer, unassigned) [Example 122]
Nav1.7 (LBA): 0.0125 µM

O=S(=O)(Nc1ncns1)c1ccc(CN2CCCCC2c2ccccc2)c(Cl)c1 (stereo not drawn) [Example 63, 3-chloro-4-((2-phenylpiperidin-1-yl)methyl)-N-(1,2,4-thiadiazol-5-yl)benzenesulfonamide]
Nav1.7 (LBA): 0.609 µM

O=S(=O)(Nc1ncns1)c1ccc2c(c1)OCC[C@@H]2N1CC[C@H](C(F)F)C[C@@H]1c1ccc(F)cc1 [Example 187, (S)-4-((2R,4S)-4-(difluoromethyl)-2-(4-fluorophenyl)piperidin-1-yl)-N-(1,2,4-thiadiazol-5-yl)chroman-7-sulfonamide]
Nav1.7 (LBA): 0.00255 µM

O=S(=O)(Nc1ncns1)c1ccc2c(c1)OCC[C@@H]2N1CC[C@@H](C(F)(F)F)C[C@H]1c1ccc(F)c(F)c1 [Example 106, (S)-4-((2S,4R)-2-(3,4-difluorophenyl)-4-(trifluoromethyl)piperidin-1-yl)-N-(1,2,4-thiadiazol-5-yl)chroman-7-sulfonamide]
Nav1.7 (LBA): 0.0016 µM

O=S(=O)(Nc1nccs1)c1cc2c(cc1F)[C@H](N1CC[C@@H](C(F)(F)F)C[C@H]1c1ccncc1)CCO2 [Example 195, (R)-6-fluoro-4-((2S,4R)-2-(pyridin-4-yl)-4-(trifluoromethyl)piperidin-1-yl)-N-(thiazol-2-yl)chroman-7-sulfonamide]
Nav1.7 (LBA): 0.0901 µM

O=S(=O)(Nc1nccs1)c1cc2c(cc1F)[C@H](N1CC[C@@H](C(F)(F)F)C[C@H]1c1ccc(F)c(F)c1)CCO2 [Example 197, (R)-4-((2S,4R)-2-(3,4-difluorophenyl)-4-(trifluoromethyl)piperidin-1-yl)-6-fluoro-N-(thiazol-2-yl)chroman-7-sulfonamide]
Nav1.7 (LBA): 0.351 µM

Cn1nccc1[C@H]1C[C@@H](C(F)(F)F)CCN1[C@H]1CCOc2cc(S(=O)(=O)Nc3ncns3)ccc21 (single isomer, unassigned) [Example 125]
Nav1.7 (LBA): 0.00448 µM

O=S(=O)(Nc1ncns1)c1ccc2c(c1)OCC[C@H]2N1CC[C@@](O)(C(F)(F)F)C[C@H]1c1ccc(F)cc1 [Example 167, (R)-4-((2S,4S)-2-(4-fluorophenyl)-4-hydroxy-4-(trifluoromethyl)piperidin-1-yl)-N-(1,2,4-thiadiazol-5-yl)chroman-7-sulfonamide]
Nav1.7 (LBA): 3 µM

C[C@H](c1ccc(S(=O)(=O)Nc2ncns2)cc1Cl)N1CCCC[C@H]1c1ccccc1 (single isomer, unassigned) [Example 61]
Nav1.7 (LBA): 3.98 µM

O=S(=O)(Nc1ncns1)c1ccc2c(c1)OCC[C@@H]2N1CC[C@@H](OC(F)(F)F)C[C@H]1c1ccc(F)cc1 [Example 174, (S)-4-((2S,4R)-2-(4-fluorophenyl)-4-(trifluoromethoxy)piperidin-1-yl)-N-(1,2,4-thiadiazol-5-yl)chroman-7-sulfonamide]
Nav1.7 (LBA): 0.235 µM

O=S(=O)(Nc1ncns1)c1ccc2c(c1)OCC[C@@H]2N1CCCC[C@H]1c1cccnc1 (single isomer, unassigned) [Example 121]
Nav1.7 (LBA): 0.0237 µM

O=S(=O)(Nc1cccc(F)n1)c1ccc(CN2CCCC[C@@H]2c2ccccc2)c(Cl)c1 [Example 74, (R)-3-chloro-N-(6-fluoropyridin-2-yl)-4-((2-phenylpiperidin-1-yl)methyl)-benzenesulfonamide]
Nav1.7 (LBA): 2.67 µM

Nc1cccc([C@@H]2C[C@H](C(F)(F)F)CCN2[C@H]2CCOc3cc(S(=O)(=O)Nc4nccs4)c(F)cc32)n1 [Example 206, (S)-4-((2S,4R)-2-(6-aminopyridin-2-yl)-4-(trifluoromethyl)piperidin-1-yl)-6-fluoro-N-(thiazol-2-yl)chroman-7-sulfonamide]
Nav1.7 (LBA): 0.000515 µM

Cn1nccc1[C@@H]1C[C@H](C(F)(F)F)CCN1[C@@H]1CCOc2cc(S(=O)(=O)Nc3ncns3)ccc21 (single isomer, unassigned) [Example 124]
Nav1.7 (LBA): 0.601 µM

O=S(=O)(Nc1ncns1)c1ccc2c(c1)CCC[C@H]2N1CCCC[C@H]1c1ccccc1 (single isomer, unassigned) [Example 53, trifluoroacetic acid salt]
Nav1.7 (LBA): 0.271 µM

Cn1cc([C@@H]2C[C@H](C(F)(F)F)CCN2[C@H]2CCOc3cc(S(=O)(=O)Nc4ncns4)ccc32)cn1 [Example 201, (S)-4-((2S,4R)-2-(1-methyl-1H-pyrazol-4-yl)-4-(trifluoromethyl)piperidin-1-yl)-N-(1,2,4-thiadiazol-5-yl)chroman-7-sulfonamide]
Nav1.7 (LBA): 0.0037 µM

O=S(=O)(Nc1ncns1)c1ccc2c(c1)OCC[C@H]2N1CCC[C@H]1c1ccccc1 (single isomer, unassigned) [Example 40]
Nav1.7 (LBA): 0.798 µM

O=S(=O)(Nc1ncns1)c1ccc2c(c1)OCC[C@@H]2N1CCC(F)(F)C[C@@H]1c1ccccc1 (single isomer, unassigned) [Example 142]
Nav1.7 (LBA): 0.0173 µM

N#C[C@H]1CCN([C@H]2CCOc3cc(S(=O)(=O)Nc4ncns4)ccc32)[C@@H](c2ccc(F)cc2)C1 [Example 179, (S)-4-((2R,4S)-4-cyano-2-(4-fluorophenyl)piperidin-1-yl)-N-(1,2,4-thiadiazol-5-yl)chroman-7-sulfonamide]
Nav1.7 (LBA): 0.0109 µM

N#CC1CCN([C@H]2CCOc3cc(S(=O)(=O)Nc4ncns4)ccc32)CC1 [Example 147, (S)-4-(4-cyanopiperidine-1-yl)-N-(1,2,4-thiadiazol-5-yl)chromane-7-sulfonamide]
Nav1.7 (LBA): 5.36 µM

N#Cc1cc(S(=O)(=O)Nc2ncns2)ccc1CN1CC[C@@H](C(F)(F)F)C[C@H]1c1ccccc1 [Example 119, 3-Cyano-4-(((2S,4R)-2-phenyl-4-(trifluoromethyl)piperidin-1-yl)methyl)-N-(1,2,4-thiadiazol-5-yl)benzenesulfonamide]
Nav1.7 (LBA): 0.0181 µM

CC[C@H]1CCCCN1[C@H](C)c1ccc(S(=O)(=O)Nc2ncns2)cc1Cl (racemic) [Example 58, (±)-3-chloro-4-((R)-1-((S)-2-ethylpiperidin-1-yl)ethyl)-N-(1,2,4-thiadiazol-5-yl)benzenesulfonamide]
Nav1.7 (LBA): 5.3 µM

O=S(=O)(Nc1cscn1)c1cc2c(cc1F)[C@H](N1CCCC[C@H]1c1ccccc1)CCO2 (single isomer, unassigned) [Example 98]
Nav1.7 (LBA): 1.79 µM

CC1(C)CCN(Cc2cc(F)c(S(=O)(=O)Nc3ncns3)cc2F)[C@H](c2ccccc2)C1 (single isomer, unassigned) [Example 2]
Nav1.7 (LBA): 0.288 µM

O=S(=O)(Nc1ncns1)c1ccc2c(c1)OCC[C@@H]2N1CC[C@@H](C(F)(F)F)C[C@H]1c1ccc(F)c(Cl)c1 [Example 204, (S)-4-((2S,4R)-2-(3-chloro-4-fluorophenyl)-4-(trifluoromethyl)piperidin-1-yl)-N-(1,2,4-thiadiazol-5-yl)chroman-7-sulfonamide]
Nav1.7 (LBA): 0.00398 µM

O=S(=O)(Nc1ncns1)c1ccc2c(c1)OCC[C@@H]2N1CCCC[C@H]1C1CCCCC1 (single isomer, unassigned) [Example 155]
Nav1.7 (LBA): 4.35 µM

CC(C)(O)[C@@H]1CCN([C@H]2CCOc3cc(S(=O)(=O)Nc4ncns4)ccc32)[C@H](c2ccc(F)cc2)C1 (single isomer, unassigned) [Example 138]
Nav1.7 (LBA): 0.0035 µM

O=S(=O)(Nc1ncns1)c1ccc2c(c1)CC[C@@H]2N1CCCC[C@H]1c1ccccc1 (racemic) [Example 67, 1-(2-phenylpiperidin-1-yl)-N-(1,2,4-thiadiazol-5-yl)-2,3-dihydro-1H-indene-5-sulfonamide]
Nav1.7 (LBA): 0.157 µM

C[C@H]1CC[C@@H](c2ccccc2)N(Cc2cc(F)c(S(=O)(=O)Nc3ncns3)cc2F)C1 (single isomer, unassigned) [Example 21]
Nav1.7 (LBA): 0.672 µM

Cn1nccc1[C@@H]1CCCCN1Cc1cc(F)c(S(=O)(=O)Nc2ncns2)cc1F (single isomer, unassigned) [Example 15]
Nav1.7 (LBA): 9.36 µM

O=S(=O)(Nc1nccs1)c1cc2c(cc1F)[C@H](N1CC[C@@H](C(F)(F)F)C[C@H]1c1ccccn1)CCO2 [Example 190, (R)-6-fluoro-4-((2S,4R)-2-(pyridin-2-yl)-4-(trifluoromethyl)piperidin-1-yl)-N-(thiazol-2-yl)chroman-7-sulfonamide]
Nav1.7 (LBA): 0.0448 µM

O=S(=O)(Nc1ncns1)c1ccc2c(c1)OCC[C@@H]2N1CC[C@H](OC(F)(F)F)C[C@@H]1c1ccc(F)cc1 [Example 175, (S)-4-((2R,4S)-2-(4-fluorophenyl)-4-(trifluoromethoxy)piperidin-1-yl)-N-(1,2,4-thiadiazol-5-yl)chroman-7-sulfonamide]
Nav1.7 (LBA): 0.00305 µM
